Counter-ions that a name gives are not always drawn. Like-named read-outs stand apart in the source and are kept apart here.
Assays:
Format in all cases: cell-based
[1] = tested on: Bacillus anthracis, Sterne 34F2; test: microbe, parasite or virus in culture; conditions: STERNE34F2, read-out: MIC B.a.
[2] = tested on: Bacillus subtilis (ATCC 23857); test: MIC determination, microbroth dilution; conditions: ATCC23857; Bacillus subtilis (ATCC 23857); read-out: MIC B.s.
[3] = tested on: MRSA, Staphylococcus aureus (NRS70); test: MIC determination, microbroth dilution; conditions: Staphylococcus aureus (NRS70); read-out: MIC MRSA
[4] = tested on: Streptococcus pyogenes (ATCC 700294); test: MIC determination, microbroth dilution; conditions: ATCC700294; Streptococcus pyogenes (ATCC 700294); read-out: MIC S. py.
E. coli K12 ΔtolC = test: microbe, parasite or virus in culture; conditions: Escherichia coli, read-out: MIC E.c. Δtolc
[5] = tested on: Pseudomonas aeruginosa (PA01); test: MIC determination, microbroth dilution
[6] = tested on: Proteus mirabilis (ATCC 25933); test: MIC determination, microbroth dilution; conditions: ATCC25933
[7] = tested on: Legionella pneumophila (ATCC 33153); test: microbe, parasite or virus in culture; conditions: ATCC33153, 72 h, read-out: Zone of inhibition L.p.
Yersinia pestis = test: microbe, parasite or virus in culture; conditions: read-out: MIC Y.p.
[8] = tested on: Streptococcus pneumoniae clinical isolates representing several serotypes; test: MIC determination, Streptococcus pneumoniae panel of clinical isolates (Table 7); conditions: for MIC: Streptococcus pneumoniae

CN[C@@H]1[C@H](O)[C@H](NC)[C@H]2O[C@]3(O)[C@H](O[C@@H]2[C@H]1O)O[C@H](C)C[C@@]3(O)CNCc1ccc(F)cc1 [compound 2, 3′-(R)-3′-[(4-fluoro)benzylaminomethyl)]dihydrospectinomycin Trihydrochloride]
MIC [1]: 25 µg/mL | MIC [2]: 3.1 µg/mL | MIC [3]: 50 µg/mL | MIC [4]: 1.6 to 3.1 µg/mL | MIC (E. coli K12 ΔtolC): 6.3 µg/mL | MIC [5]: 100 to 200 µg/mL | MIC [6]: > 200 µg/mL | zone of inhibition at 4 µg/disc [7]: 32 to 49 mm | MIC (Yersinia pestis): 100 µg/mL | susceptibility of strains with mono-resistance to penicillin, streptomycin, and erythromycin [8]: highly susceptible | MIC ([8]; BAA1407, S. pneumoniae BAA-1407, Macrolide Resistant, read-out: MIC BAA-1407): 6.3 µg/mL | MIC ([8]; S. pneumoniae A66.1x, Drug Susceptible, read-out: MIC A66.1x): 1.6 µg/mL | MIC ([8]; S. pneumoniae BHN97x, Drug Susceptible, read-out: MIC BHN97x): 1.6 µg/mL | MIC ([8]; S. pneumoniae D39X, Drug Susceptible, read-out: MIC D39X): 1.6 µg/mL | MIC ([8]; S. pneumoniae Daw7, PenG Resistant, read-out: MIC Daw7): 3.1 µg/mL | MIC ([8]; S. pneumoniae Daw8, PenG Resistant, read-out: MIC Daw8): 3.1 µg/mL | MIC ([8]; S. pneumoniae Daw9, PenG Resistant, read-out: MIC Daw9): 3.1 µg/mL | MIC ([8]; S. pneumoniae Daw62, PenG Resistant, read-out: MIC Daw62): 3.1 µg/mL | MIC ([8]; S. pneumoniae Daw64, PenG Resistant, read-out: MIC Daw64): 3.1 µg/mL | MIC ([8]; S. pneumoniae OVA6, Macrolide Resistant, read-out: MIC OVA6): 3.1 µg/mL | MIC ([8]; S. pneumoniae T4X, Drug Susceptible, read-out: MIC T4X): 3.1 µg/mL
